Laboratory results as given in patent EP0392666A2, “Anti-HIV compositions” (JOHNSON MATTHEY PUBLIC LIMITED COMPANY, priority 1989, dated 1990).
Converted amounts (≈) assume the structure as drawn. Read-outs that look alike come from different tables or passages of the source.

Key:
[1] = system: HIV-1 (HTLV-IIIB); assay: microbe, parasite or virus in culture; type: cell-based; settings: for EC50: Human immunodeficiency virus 1, MT4, 120 h, read-out: ED₅₀; for SI: Selectivity Index, ratio of CD₅₀ to ED₅₀, HIV-1, 7200 min
Procedure: (§1) The compounds of the invention were tested in a screen by the MTT method (J. Virol. Methods 120: 309-321 [1988]). MT-4 cells (2.5 x 10⁴ /well) were infected with HIV-1 (HTLV-IIIB) or HIV-2 (LAV-2 ROD) at a concentration of 100 CCID₅₀ and incubated in the presence of various concentrations of the test compounds, which were added immediately after infection with the virus. After 5 days culture at 37°C in a CO₂ incubator, the number of viable cells was assessed by the MTT (tetrazolium) method. […] The potential therapeutic usefulness was assessed by calculating a Selectivity Index (SI) corresponding to the ratio of CD₅₀ to ED₅₀. A control test was performed using the known anti-HIV treatment AZT.

[2] = Cytotoxicity by MTT method in MT-4 cells; type: cell-based, human; settings: human, mt-4 cells, read-out: CD₅₀
Procedure: as §1

[3] = system: HIV-2 (LAV-2 ROD); assay: MTT method anti-HIV screen in MT-4 cells infected with HIV-2; type: cell-based; settings: for ED₅₀ / EC50: antiviral activity, MT-4 cells infected with HIV-2 (LAV-2 ROD) at 100 CCID₅₀, 5 days; for EC50: Human immunodeficiency virus 2, MT4, 120 h, read-out: ED₅₀; for SI: Selectivity Index, ratio of CD₅₀ to ED₅₀, HIV-2, 7200 min
Procedure: as §1

[4] = system: MT-4 cells; assay: Cytotoxicity by MTT method in MT-4 cells; type: cell-based, human
Procedure: as §1

[5] = antiviral activity, MT-4 cells infected with HIV-1 (HTLV-IIIB) at 100 CCID₅₀, 5 days

| Molecule | EC50 [1] | SI [1] | CC50 at 120 h ([2]; HIV-1, 5 days culture at 37°C) | ED₅₀ [1, 5] | ED₅₀ [3] | CD₅₀ ([4]; HIV-1, 5 days culture at 37°C) | CD₅₀ ([4]; HIV-2, 5 days culture at 37°C) | EC50 [1, 5] | EC50 [3] | SI [3] | CC50 at 120 h ([2]; HIV-2, 5 days culture at 37°C) |
| --- | --- | --- | --- | --- | --- | --- | --- | --- | --- | --- | --- |
| Cc1cn([C@H]2C[C@H](N=[N+]=[N-])[C@@H](CO)O2)c(=O)[nH]c1=O [AZT, reference compound] | < 0.008 µg/mL | >125 | > 1 µg/mL |  |  |  |  |  |  |  |  |
| Zn complex of 1,5,9,13-tetrazacyclohexaadecane (Cl⁻) [Compound H] |  |  |  | 10.6 µg/mL | >100.0 µg/mL | 46.9 µg/mL | 46.9 µg/mL |  |  |  |  |
| [Cu cyclam]Cl₂ [X, reference compound] |  |  |  | >250 µg/mL |  |  |  |  |  |  |  |
| c-[Rh cyclam (NO₂)₂]Cl [reference compound] |  |  |  | >250 µg/mL |  |  |  |  |  |  |  |
| C1CCNCCCNCCNCCCNC1 [C, 1,4,8,13-tetrazacyclohexadecane. 4HCl] |  | 18 | 334 µg/mL |  |  |  |  | 18.8 µg/mL | > 500 µg/mL | <1 | 341 µg/mL |
| C1CNCCCNCCCNCCCNC1 [D, 1,5,9,13-tetrazacyclohexadecane] |  | 37 | 11.2 µg/mL (≈ 49 µM) |  |  |  |  | 0.3 µg/mL (≈ 1.31 µM) | > 40 µg/mL | <1 | 20.5 µg/mL (≈ 89.8 µM) |
| Zn complex of 1,4,8,12-tetrazacyclopentadecane (Cl⁻) [G] |  |  |  | 6.96 µg/mL | >1000.0 µg/mL | 194.2 µg/mL | 218.3 µg/mL |  |  |  |  |
| C1CNCCCNCCNCCCNC1 [B, 1,4,8,12-tetrazacyclopentadecane] |  | 15 | 460 µg/mL (≈ 2140 µM) |  |  |  |  | 30.3 µg/mL (≈ 141 µM) | 40.4 µg/mL (≈ 188 µM) | 12 | 487 µg/mL (≈ 2270 µM) |
| CC1CC(C)(C)NCCNC(C)CC(C)(C)NCCN1 (stereo not shown) [I, 5,5,7,12,12,14-hexamethyl-cyclam] |  | 2 | 432 µg/mL (≈ 1520 µM) |  |  |  |  | 197 µg/mL (≈ 692 µM) | > 1000 µg/mL | <1 | 419 µg/mL (≈ 1470 µM) |
| C1CNCCNCCNCCNCCN1 [F, 1,4,7,10,13-pentazacyclopentadecane] |  | <1 | 3.36 µg/mL (≈ 15.6 µM) |  |  |  |  | > 8 µg/mL | > 8 µg/mL | <1 | 6.03 µg/mL (≈ 28 µM) |
| C1CCNCCCNCCCNCCCNC1 [E, 1,5,9,14-tetrazacycloheptadecane] |  | 3 | 3.35 µg/mL (≈ 13.8 µM) |  |  |  |  | 1.3 µg/mL (≈ 5.36 µM) | > 8 µg/mL | <1 | 5.06 µg/mL (≈ 20.9 µM) |
